Consider 19 compounds from paper PMC11505911, “Design and Synthesis of Small Molecule Probes of MDA-9/Syntenin” (Biomolecules, 2024).

On the set-up of data set [1]: method as in printed. The settings on record: stated in introduction; ref not given; cited from earlier work.
Data set [2] concerns the target T1, MDA-9/Syntenin (Homo sapiens, UniProt O00560).
T1 construct: made in house
T1 sequence (O00560 1-298): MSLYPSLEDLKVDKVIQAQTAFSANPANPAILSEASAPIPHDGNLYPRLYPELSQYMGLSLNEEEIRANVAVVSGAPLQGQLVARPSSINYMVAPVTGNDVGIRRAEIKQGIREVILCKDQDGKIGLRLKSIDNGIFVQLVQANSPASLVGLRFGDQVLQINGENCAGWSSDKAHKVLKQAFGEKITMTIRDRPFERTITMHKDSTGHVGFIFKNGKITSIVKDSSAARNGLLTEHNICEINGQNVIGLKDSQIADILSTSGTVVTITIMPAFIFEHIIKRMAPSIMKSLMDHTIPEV
Briefly: Fluorescence polarization titration of ligands into MDA-9/Syntenin. The settings on record: 20 mM Tris-HCl, 100 mM NaCl, 0.01% PEG800, 0.05% Tween20, pH 7.4; single-site fit; minimum of two titrations. In kind it is binding. The method, then:
Spectrofluorimetric titrations were performed on a Horiba QM400 spectrometer (HORIBA Scientific, Piscataway, NJ, USA). Excitation and emission wavelengths of 280 nm and 340 nm (600 nm for the reference emission wavelength) were used, with 5 nm excitation and 12 nm emission band widths, as described earlier. Experiments were performed in ratiometric mode, with excitation and emission polarizers set to 0,0 angles at room temperature. The titration buffer was 20 mM Tris-HCl buffer, pH 7.4. The stock concentrations of protein and ligands were 40 and 300–1000 μM, respectively. Whereas the protein was prepared in the titration buffer, the ligands were prepared in DMSO. The ligands (either URD001, NGI03, or NVS125) were titrated into the protein solution in aliquots, and saturable changes in fluorescence polarization were used to calculate the affinity. […] The emission intensities were corrected for dilution effects (<10% overall). The observed change in fluorescence polarization relative to initial signal (F0) was fitted using a standard single-site binding model to obtain the dissociation constant (KD) and the maximal change in fluorescence polarization (ΔF) at saturation.
We then explored fluorescence polarization (λEX = 280 nm, λEM = 340 nm; λREF = 600 nm) in 20 mM Tris-HCl containing 100 mM NaCl, 0.01% PEG800, and 0.05% Tween20, pH 7.4. Polarization relies on the change in molecular diffusion of the protein in the presence of a ligand as a probe of interaction. This technique worked well for PDZ1i, which presented a classic hyperbolic binding profile. […] For NGI03 and URD001, KDs of 1.1 and 3.0 μM, respectively, were measured. […] This implies that no reliable fit of the data could be obtained. Yet, based on the profile, the KD is likely to be more than 200 μM.
A general note: In fluorescence polarisation assays a small probe gives low polarisation when free and higher when bound to something large.

Data set [3] deals with T1, MDA-9/Syntenin. The settings on record: cited from earlier work.
Data set [4] addresses T1, MDA-9/Syntenin. Details: method as in printed. The settings on record: pre-PDZ1i molecules studied en route to the discovery of PDZ1i; ref not given; cited from earlier work.
Data set [5] can be described thus: Aqueous solubility (qualitative). It is filed as physicochemical. The settings on record: authors' observation.

Several values for one entry are separate records, joined by “and”; a condition that tells them apart may be missing. Identical values can stand only once. Like-named read-outs stand apart in the source and are kept apart here. Bounds are passed on as bounds.

The term Kd denotes a measure of binding affinity in units of concentration. For `Cc1cc(NC(=O)c2nc3[nH]c4c(c(=O)n3n2)CCC4)c(C)cc1NC(=O)CCc1nnc(-c2ccccc2)o1` [PDZ1i], the aqueous solubility entry in data set [1] is on record as “poor aqueous solubility”. Further, the Kd at MDA-9/Syntenin [2] was 78 µM and ~78 µM; on MDA-9/Syntenin [3] (binding domain PDZ1), 60 to 70 µM.

What is called IC50 is the concentration that gives 50% inhibition. In the case of `O=C(Nc1ccc(O)cc1)c1nc2[nH]c3c(c(=O)n2n1)CCC3` [112E12], at MDA-9/Syntenin [4], the IC50 is 1610 µM.

“IVMT-Rx-3: polyethylene glycol conjugation from truncated PDZ1i with a PDZ2-binding hexapeptide (TNEYYF)”: in the data set with MDA-9/Syntenin [3] (binding domain PDZ1, PDZ2), the Kd was 63 µM.

For “Neurexin hexapeptide: hexapeptide epitope from neurexin binding the PDZ2 domain (TNEYYV)”, the Kd with MDA-9/Syntenin [3] (binding domain PDZ2) is 100 µM.

`Cc1cc(NC(=O)c2nc3[nH]c4c(c(=O)n3n2)CCC4)c(C)cc1NC(=O)CC(c1nnc(-c2ccccc2)o1)c1nnc(-c2ccccc2)o1` [NGI03, N-(4-(3,3-bis(5-phenyl-1,3,4-oxadiazol-2-yl)propanamido)-2,5-dimethylphenyl)-8-oxo-5,6,7,8-tetrahydro-4H-cyclopenta[d][1,2,4]triazolo[1,5-a]pyrimidine-2-carboxamide] showed a Kd at MDA-9/Syntenin [2] of 1.1 µM. For the same compound, the aqueous solubility result in data set [5] is “aqueous solubility issues”.

As to `Cc1ccc(-c2nnc(CCC(=O)Cc3cc(C)c(C(=O)O)cc3C)o2)cc1` [NVS125], the Kd on MDA-9/Syntenin [2] was greater than 200 µM. The aqueous solubility entry in data set [5] is given as “good aqueous solubility”.

On to `Cc1cc(=O)n2nc(C(=O)Nc3ccc(O)cc3)nc2[nH]1` [112D11], for which the 50% inhibitory concentration (IC50) on MDA-9/Syntenin [4] was 245 µM.

Take `Cc1cc(=O)n2nc(COc3ccccc3)nc2[nH]1` [30A9]: on MDA-9/Syntenin [4], the concentration for half-maximal inhibition (IC50) was 197 µM.

Regarding `Cc1cc(=O)n2nc(C(=O)Nc3cc(Cl)c(O)c(Cl)c3)nc2[nH]1` [112G1], at MDA-9/Syntenin [4], the IC50 is 57.3 µM.

For the compound `Cc1cc(=O)n2nc(C(=O)Nc3ccc(O)c(F)c3)nc2[nH]1` [112G2], the IC50 on MDA-9/Syntenin [4] was 147 µM.

Regarding “Ephrin hexapeptide: hexapeptide epitope from ephrin B binding the PDZ2 domain (NIYYKV; Paralogue and species inferred; terminal caps unknown)”, the Kd in the data set with MDA-9/Syntenin [3] (binding domain PDZ2) is 790 µM.

As for `O=C(Nc1ccc(O)c(Cl)c1)c1nc2[nH]c3c(c(=O)n2n1)CCC3` [112G3], the IC50 on MDA-9/Syntenin [4] was 119 µM.

Take `Cc1cc(NC(=O)OC(C)(C)C)c(C)cc1CCCC(c1nnc(-c2ccccc2)o1)c1nnc(-c2ccccc2)o1` [CMPD10]: the 50% inhibitory concentration (IC50) on MDA-9/Syntenin [4] is 151 µM.

For `Cc1cc(=O)n2nc(C(=O)Nc3cc(Cl)c(N)c(Cl)c3)nc2[nH]1` [112G4], the IC50 at MDA-9/Syntenin [4] is 34.3 µM.

Regarding `Nc1ccc(NC(=O)c2nc3[nH]c4c(c(=O)n3n2)CCC4)cc1` [112G11], the IC50 on MDA-9/Syntenin [4] was 263 µM.

Turning to `Cc1cc(=O)n2nc(C(=O)Nc3ccc(N)cc3)nc2[nH]1` [112E7], the IC50 on MDA-9/Syntenin [4] is 944 µM.

Consider `O=C(Nc1ccc(O)c(F)c1)c1nc2[nH]c3c(c(=O)n2n1)CCC3` [112F12], for which, on MDA-9/Syntenin [4], the IC50 was 166 µM.

Compound `Cc1cc(NC(=O)c2nc3[nH]c4c(c(=O)n3n2)CCC4)c(C)cc1CCCC(c1nnc(-c2ccccc2)o1)c1nnc(-c2ccccc2)o1` [URD001, N-(4-(4,4-bis(5-phenyl-1,3,4-oxadiazol-2-yl)butyl)-2,5-dimethylphenyl)-8-oxo-5,6,7,8-tetrahydro-4H-cyclopenta[d][1,2,4]triazolo [1,5-a]pyrimidine-2-carboxamide] came in with a Kd on MDA-9/Syntenin [2] of 3 µM. For the same compound, the aqueous solubility entry in data set [5] was “aqueous solubility issues”.

For `Cc1c(C)c(NC(=O)c2nc3[nH]c4c(c(=O)n3n2)CCC4)c(C)c(C)c1N` [113B8], the IC50 on MDA-9/Syntenin [4] was 151 µM.
